Assay results published in US20120289501A1, “Benzene-fused 6-membered oxygen-containing heterocyclic derivatives of bicyclic heteroaryls” (NOVARTIS AG, priority 2009, published 2012).

Key:
Test in all cases: Enzymatic kinase assay (filter-binding / flashplate, 33P incorporation)
Assay type in all cases: biochemical
Conditions in all cases: enzymatic kinase selectivity
cMET = cMET (Homo sapiens, UniProt P08581)
Description: (§1) Two methods were used to analyze phosphorylated peptides and proteins produced by the listed tyrosine and serine/threonine-specific protein kinases: either using a filter-binding assay (FB), or using a flashplate assay (FP). The activities of protein kinases were assayed in the presence or absence of inhibitors, by measuring the incorporation of ^33P from [γ^33P]ATP into appropriate substrates.
(§2) 96-well polypropylene microplates were used to assay the activity in the FB mode. To determine the inhibitory activity of compounds 10 μL of compound dilutions were pipetted into 96-well plates followed by the addition of 10 μL of assay mix and 10 μL of individual enzymes. With the addition of the enzymes the reactions were initiated and continued at RT. The reactions were stopped by the addition of 50 μL of a 125 mM EDTA solution pH 8.0. The final concentration of DMSO in the enzyme assays was 1%.
(§3) Flashplates are available as 96-well standard (STFPs) or as streptavidin-(SAFPs) or nickel coated FPs (NiFPs) from Perkin Elmer. STFPs are 96-well polystyrene microplates in which the interior of each well is permanently coated with a thin layer of polystyrene-based scintillant. Streptavidin flashplates (SAFP) are 96 or 384-well STFPs coated with streptavidin. SAFPs are suitable for a wide variety of assay applications which utilize biotinylated capture molecules. NiFP or nickel chelate flashplates are 96- or 384-well STFPs coated with nickel chelate. NiFPs are designed for in-plate, radiometric assays which utilize 4- or 6-histidine tagged proteins and peptides.
(§4) All kinase assays were performed in STFPs for 60 mins at RT and stopped with 50 μL of 0.5% H3PO4 except PKA which were carried out in polypropylene 96- and 384-well plates, respectively. PKA assays were stopped with 50 μL of 125 mM EDTA (pH 8.0) and 50 μL were transferred to either SAFPs or NIFPs to capture the biotinylated or histidine tagged peptides phosphorylated by PKA (SAFP) or by NiFPs. All wells were then washed three times with 200 μL of 0.5% H3PO4 and the plates were dried at room temperature. The plates were sealed and counted in a microplate scintillation counter (TopCount NXT, TopCount NXT HTS). The final concentration of DMSO in the enzyme assays was 1%.

JAK2 = JAK2 (Homo sapiens, UniProt O60674)
Description: as §1, §2, §3, §4

KDR = KDR (Homo sapiens, UniProt P35968)
Description: as §1, §2, §3, §4

HER2 = HER2 (Homo sapiens, UniProt P04626)
Description: as §1, §2, §3, §4

FGFR-4 = FGFR-4 (Homo sapiens, UniProt P22455)
Sequence of FGFR-4 (P22455 22-802, species assumed): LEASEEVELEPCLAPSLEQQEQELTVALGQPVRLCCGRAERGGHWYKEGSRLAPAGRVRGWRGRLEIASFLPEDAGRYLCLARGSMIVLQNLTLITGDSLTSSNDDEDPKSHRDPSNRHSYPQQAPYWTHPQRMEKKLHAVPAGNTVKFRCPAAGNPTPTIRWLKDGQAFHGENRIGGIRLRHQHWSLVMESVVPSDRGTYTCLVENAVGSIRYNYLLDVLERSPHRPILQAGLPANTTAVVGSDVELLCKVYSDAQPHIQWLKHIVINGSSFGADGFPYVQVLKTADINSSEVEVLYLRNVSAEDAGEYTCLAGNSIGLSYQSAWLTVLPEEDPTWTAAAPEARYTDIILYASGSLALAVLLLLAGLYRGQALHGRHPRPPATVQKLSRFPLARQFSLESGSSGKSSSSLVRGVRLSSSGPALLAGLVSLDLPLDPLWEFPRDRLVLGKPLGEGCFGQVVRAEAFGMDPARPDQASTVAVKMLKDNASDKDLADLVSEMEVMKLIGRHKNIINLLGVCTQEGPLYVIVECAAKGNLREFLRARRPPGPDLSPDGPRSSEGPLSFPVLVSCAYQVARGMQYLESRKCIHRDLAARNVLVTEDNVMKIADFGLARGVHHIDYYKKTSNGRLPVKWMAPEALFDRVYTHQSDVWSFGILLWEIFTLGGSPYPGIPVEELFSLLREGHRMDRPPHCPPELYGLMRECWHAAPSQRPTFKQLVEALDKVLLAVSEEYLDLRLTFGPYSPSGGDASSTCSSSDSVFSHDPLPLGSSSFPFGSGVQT
Description: as §1, §2, §3, §4

IGF1R = IGF1R (Homo sapiens, UniProt P08069)
Sequence of IGF1R (P08069 31-1367): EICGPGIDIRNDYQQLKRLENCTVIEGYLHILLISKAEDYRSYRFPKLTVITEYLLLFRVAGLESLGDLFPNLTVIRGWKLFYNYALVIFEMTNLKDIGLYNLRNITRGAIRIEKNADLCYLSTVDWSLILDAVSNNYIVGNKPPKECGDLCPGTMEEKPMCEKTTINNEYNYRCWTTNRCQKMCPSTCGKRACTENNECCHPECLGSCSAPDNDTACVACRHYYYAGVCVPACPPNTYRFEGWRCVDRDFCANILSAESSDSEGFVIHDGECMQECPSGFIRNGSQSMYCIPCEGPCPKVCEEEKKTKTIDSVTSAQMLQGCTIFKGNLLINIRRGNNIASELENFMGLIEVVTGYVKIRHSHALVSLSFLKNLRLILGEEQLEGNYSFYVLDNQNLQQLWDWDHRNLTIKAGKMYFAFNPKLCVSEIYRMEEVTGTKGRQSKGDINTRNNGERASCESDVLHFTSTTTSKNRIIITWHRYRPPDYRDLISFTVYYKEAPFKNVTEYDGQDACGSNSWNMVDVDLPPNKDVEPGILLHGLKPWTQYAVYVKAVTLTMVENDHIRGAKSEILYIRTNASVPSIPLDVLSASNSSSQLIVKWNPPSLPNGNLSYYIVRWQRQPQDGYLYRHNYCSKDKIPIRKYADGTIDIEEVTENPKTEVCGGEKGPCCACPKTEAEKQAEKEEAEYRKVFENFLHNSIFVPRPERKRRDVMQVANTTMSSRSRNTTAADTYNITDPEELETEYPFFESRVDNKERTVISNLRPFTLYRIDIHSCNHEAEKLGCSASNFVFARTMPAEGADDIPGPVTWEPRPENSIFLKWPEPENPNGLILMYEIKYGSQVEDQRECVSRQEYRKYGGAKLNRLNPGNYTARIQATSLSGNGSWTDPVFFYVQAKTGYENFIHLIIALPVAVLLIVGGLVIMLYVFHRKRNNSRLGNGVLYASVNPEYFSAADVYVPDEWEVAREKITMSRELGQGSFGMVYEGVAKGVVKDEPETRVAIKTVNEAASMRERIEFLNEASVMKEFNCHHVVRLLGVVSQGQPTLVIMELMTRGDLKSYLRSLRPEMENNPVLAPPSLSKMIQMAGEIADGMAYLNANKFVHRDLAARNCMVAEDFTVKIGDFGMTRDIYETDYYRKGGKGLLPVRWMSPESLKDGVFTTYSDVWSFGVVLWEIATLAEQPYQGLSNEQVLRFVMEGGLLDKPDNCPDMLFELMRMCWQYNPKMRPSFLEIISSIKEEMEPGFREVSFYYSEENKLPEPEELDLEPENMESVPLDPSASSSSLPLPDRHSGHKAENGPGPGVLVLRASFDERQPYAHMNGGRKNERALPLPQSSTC
Description: as §1, §2, §3, §4

ERK2 = ERK2 (Homo sapiens, UniProt P28482)
Description: as §1, §2, §3, §4

PDGFRa = PDGFRa (Homo sapiens, UniProt P16234)
Description: as §1, §2, §3, §4

MK2 = MK2 (Homo sapiens, UniProt P49137)
Description: as §1, §2, §3, §4

LCK = LCK (Homo sapiens, UniProt P06239)
Sequence of LCK (P06239 whole entry, species assumed): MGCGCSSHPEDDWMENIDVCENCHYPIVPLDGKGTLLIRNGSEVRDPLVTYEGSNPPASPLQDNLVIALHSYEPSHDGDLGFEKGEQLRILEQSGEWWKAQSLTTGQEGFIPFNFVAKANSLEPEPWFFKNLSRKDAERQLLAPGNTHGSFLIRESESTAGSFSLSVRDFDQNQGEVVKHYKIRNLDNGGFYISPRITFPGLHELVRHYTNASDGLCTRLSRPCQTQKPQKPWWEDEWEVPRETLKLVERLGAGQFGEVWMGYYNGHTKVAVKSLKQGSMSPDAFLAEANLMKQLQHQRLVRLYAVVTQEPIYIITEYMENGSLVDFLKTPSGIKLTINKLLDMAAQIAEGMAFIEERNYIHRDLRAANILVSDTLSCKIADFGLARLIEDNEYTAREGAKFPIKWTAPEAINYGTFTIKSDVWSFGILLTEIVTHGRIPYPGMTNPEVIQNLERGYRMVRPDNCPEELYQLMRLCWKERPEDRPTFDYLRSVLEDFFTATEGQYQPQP
Description: as §1, §2, §3, §4

Aurora A = target: T1, Aurora A (Homo sapiens, UniProt O14965)
T1 sequence (O14965 1-403): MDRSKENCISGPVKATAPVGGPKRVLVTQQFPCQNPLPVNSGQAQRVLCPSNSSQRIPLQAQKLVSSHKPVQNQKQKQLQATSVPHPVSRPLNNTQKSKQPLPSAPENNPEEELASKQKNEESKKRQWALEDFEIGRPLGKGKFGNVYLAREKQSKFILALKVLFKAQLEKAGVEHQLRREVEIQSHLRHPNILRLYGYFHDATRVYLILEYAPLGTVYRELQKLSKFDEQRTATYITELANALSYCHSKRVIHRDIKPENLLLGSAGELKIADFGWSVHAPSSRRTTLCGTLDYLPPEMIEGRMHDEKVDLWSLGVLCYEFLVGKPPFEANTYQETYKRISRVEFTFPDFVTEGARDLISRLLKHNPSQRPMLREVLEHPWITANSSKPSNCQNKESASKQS
Description: as §1, §2, §3, §4

P38a = P38a (Homo sapiens, UniProt Q16539)
Description: as §1, §2, §3, §4

GSK3beta = GSK3beta (Homo sapiens, UniProt P49841)
Description: as §1, §2, §3, §4

InsR = InsR (Homo sapiens, UniProt P06213)
Description: as §1, §2, §3, §4

cABLT315 = cABLT315 (Homo sapiens, UniProt P00519, T315I)
Description: as §1, §2, §3, §4

TYK2 = TYK2 (Homo sapiens, UniProt P29597)
Sequence of TYK2 (P29597 whole entry, species assumed): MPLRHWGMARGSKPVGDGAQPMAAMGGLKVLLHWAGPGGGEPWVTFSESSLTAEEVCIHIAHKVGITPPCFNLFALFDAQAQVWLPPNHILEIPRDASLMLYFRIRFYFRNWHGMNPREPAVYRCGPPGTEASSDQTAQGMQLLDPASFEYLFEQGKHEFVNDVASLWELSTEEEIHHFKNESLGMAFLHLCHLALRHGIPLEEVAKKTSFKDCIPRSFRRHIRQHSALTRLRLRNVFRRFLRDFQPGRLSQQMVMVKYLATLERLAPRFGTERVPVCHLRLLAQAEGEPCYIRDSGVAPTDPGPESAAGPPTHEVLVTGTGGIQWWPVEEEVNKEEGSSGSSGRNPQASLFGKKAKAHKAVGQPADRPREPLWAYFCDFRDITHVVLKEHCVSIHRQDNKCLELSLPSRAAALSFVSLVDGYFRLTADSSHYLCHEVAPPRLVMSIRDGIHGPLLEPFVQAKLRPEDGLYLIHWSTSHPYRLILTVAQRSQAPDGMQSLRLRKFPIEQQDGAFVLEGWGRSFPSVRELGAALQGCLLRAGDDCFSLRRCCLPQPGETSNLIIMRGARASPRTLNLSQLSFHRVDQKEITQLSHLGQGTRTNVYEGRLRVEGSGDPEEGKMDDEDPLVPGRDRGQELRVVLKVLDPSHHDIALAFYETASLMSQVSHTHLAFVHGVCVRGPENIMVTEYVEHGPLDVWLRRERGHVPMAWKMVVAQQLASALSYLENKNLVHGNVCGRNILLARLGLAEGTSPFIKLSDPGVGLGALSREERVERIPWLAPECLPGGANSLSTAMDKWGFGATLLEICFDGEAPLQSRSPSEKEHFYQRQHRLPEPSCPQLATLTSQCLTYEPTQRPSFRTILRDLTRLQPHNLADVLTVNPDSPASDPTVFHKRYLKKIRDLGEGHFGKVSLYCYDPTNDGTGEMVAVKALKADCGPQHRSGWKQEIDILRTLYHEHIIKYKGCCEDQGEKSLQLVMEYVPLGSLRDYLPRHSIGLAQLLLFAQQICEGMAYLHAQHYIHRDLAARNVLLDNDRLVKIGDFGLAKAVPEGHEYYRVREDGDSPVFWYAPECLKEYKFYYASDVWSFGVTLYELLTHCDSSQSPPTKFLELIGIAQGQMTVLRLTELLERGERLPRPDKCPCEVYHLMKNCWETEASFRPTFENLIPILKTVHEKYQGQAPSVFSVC
Description: as §1, §2, §3, §4

EphA4 = EphA4 (Homo sapiens, UniProt P54764)
Sequence of EphA4 (P54764 20-986, species assumed): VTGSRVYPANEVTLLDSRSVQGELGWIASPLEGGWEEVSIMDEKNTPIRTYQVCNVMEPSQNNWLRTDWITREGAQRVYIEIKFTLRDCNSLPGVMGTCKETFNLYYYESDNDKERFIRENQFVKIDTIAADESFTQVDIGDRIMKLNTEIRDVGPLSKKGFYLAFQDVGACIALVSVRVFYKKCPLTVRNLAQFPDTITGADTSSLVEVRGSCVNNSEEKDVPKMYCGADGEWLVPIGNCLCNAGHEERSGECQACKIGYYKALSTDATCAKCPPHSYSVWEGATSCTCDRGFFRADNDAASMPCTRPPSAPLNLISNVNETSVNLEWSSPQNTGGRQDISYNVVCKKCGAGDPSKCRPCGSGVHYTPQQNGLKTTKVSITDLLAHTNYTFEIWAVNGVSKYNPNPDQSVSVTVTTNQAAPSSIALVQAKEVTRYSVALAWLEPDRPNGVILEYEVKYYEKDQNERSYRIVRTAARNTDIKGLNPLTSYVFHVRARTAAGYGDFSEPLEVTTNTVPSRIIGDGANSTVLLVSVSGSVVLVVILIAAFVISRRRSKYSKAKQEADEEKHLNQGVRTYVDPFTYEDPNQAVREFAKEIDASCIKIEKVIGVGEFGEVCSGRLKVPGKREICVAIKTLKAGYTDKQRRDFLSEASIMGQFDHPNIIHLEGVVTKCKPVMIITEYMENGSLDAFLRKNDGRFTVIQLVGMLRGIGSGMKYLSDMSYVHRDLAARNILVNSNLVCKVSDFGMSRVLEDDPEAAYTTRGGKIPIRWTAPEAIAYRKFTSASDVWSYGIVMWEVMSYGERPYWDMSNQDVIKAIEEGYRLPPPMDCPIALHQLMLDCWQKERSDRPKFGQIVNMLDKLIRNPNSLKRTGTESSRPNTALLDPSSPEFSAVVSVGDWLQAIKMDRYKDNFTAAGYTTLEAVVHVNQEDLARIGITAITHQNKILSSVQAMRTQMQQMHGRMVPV
Description: as §1, §2, §3, §4

cKIT = cKIT (Homo sapiens, UniProt P10721)
Description: as §1, §2, §3, §4

COT1 = COT1 (Homo sapiens, UniProt P41279)
Description: as §1, §2, §3, §4

CDK2A = CDK2A (Homo sapiens, UniProt P24941)
Description: as §1, §2, §3, §4

RET = RET (Homo sapiens, UniProt P07949)
Description: as §1, §2, §3, §4

IC50 (cMET) [nM]	IC50 (JAK2) [nM]	IC50 (KDR) [nM]	IC50 (HER2) [nM]	IC50 (FGFR-4) [nM]	IC50 (IGF1R) [nM]	IC50 (ERK2) [nM]	IC50 (PDGFRa) [nM]	IC50 (MK2) [nM]	IC50 (LCK) [nM]	IC50 (Aurora A) [nM]	IC50 (P38a) [nM]	IC50 (GSK3beta) [nM]	IC50 (InsR) [nM]	IC50 (cABLT315) [nM]	IC50 (TYK2) [nM]	IC50 (EphA4) [nM]	IC50 (cKIT) [nM]	IC50 (COT1) [nM]	IC50 (CDK2A) [nM]	SMILES	other results
> 10000	> 10000	250	> 10000	8900	58	> 10000	> 10000	> 10000	6150	8800	> 10000	> 10000	1450	4350	> 10000	> 10000	> 10000	> 10000	> 10000	Nc1ncnc2c1c(-c1ccc3c(c1)OC(c1ccccc1)CC3)cn2C1CC(O)(CO)C1 (single isomer, unassigned) [Example 26]	IC50 (RET): 760 nM
> 10000	> 10000	110	> 10000	> 10000	7.8	> 10000	770	> 10000	3600	4000	> 10000	> 10000	73	> 10000	> 10000	> 10000	770	> 10000	> 10000	Nc1ncnc2c1c(-c1ccc3c(c1)OC(c1ccccc1)C=C3)cn2[C@H]1C[C@@H](CN2CCS(=O)(=O)CC2)C1 (mixture of isomers) [Example 21, (R,S)-7-[cis-3-(1,1-Dioxo-1-thiomorpholin-4-ylmethyl)-cyclobutyl]-5-(2-phenyl-2H-chromen-7-yl)-7H-pyrrolo[2,3-d]pyrimidin-4-ylamine]	IC50 (RET): 25 nM
> 10000	> 10000	160	> 10000	> 10000	50	> 10000	1200	> 10000	4460	4300	> 10000	> 10000	780	8000	> 10000	> 10000	3200	> 10000	> 10000	CC(=O)NC[C@H]1C[C@@H](n2cc(-c3ccc4c(c3)OC(c3ccccc3)CC4)c3c(N)ncnc32)C1 (mixture of isomers) [Example 16, (R,S)—N-{cis-3-[4-Amino-5-(2-phenyl-chroman-7-yl)-pyrrolo[2,3-d]pyrimidin-7-yl]-cyclobutylmethyl}-acetamide]	IC50 (RET): 360 nM
> 10000	> 10000	240	> 10000	> 10000	17	> 10000	> 10000	> 10000	3800	> 10000	> 10000	> 10000	100	> 10000	> 10000	> 10000	6000	> 10000	> 10000	CC(=O)N1CCN([C@H]2C[C@@H](n3cc(-c4ccc5c(c4)OC(c4ccccc4)CC5)c4c(N)ncnc43)C2)CC1 (relative stereo) [Example 38, 1-(4-{cis-3-[4-Amino-5-(2-phenyl-chroman-7-yl)-pyrrolo[2,3-d]pyrimidin-7-yl]-cyclobutyl}-piperazin-1-yl)-ethanone]	IC50 (RET): 410 nM
